Data taken from US20030073133A1, “Individualization of therapy with erectile dysfunction agents” (McGill University, priority 2001, published 2003).
Where two headings read alike, the source gives them in different places. Marks after values point to notes of the source that are not given here.

Key:
1X-Ab = assay: Competitive antigen ELISA, cross-reactivity of 1X-Ab; type: binding, rabbit; conditions: 0 = absence of inhibition or inhibition no higher than 40% at highest concentration tested (5 × 10^−3 M)
Protocol: (§1) Competitive Antigen Elisa
(§2) Buffers and water without additives are filtered through millipore filters and kept for 1 week. BSA, antibodies, Tween™ 20 and horse radish peroxidase conjugates are added to these buffers and water just prior to use. Urine samples are usually collected 4 hours after drinking a cup of coffee (instant or brewed with approximately 100 mg of caffeine per cup) and stored at −80° C. The urine samples are diluted 10 times with sodium phosphate buffer (620 mosm, pH 7.50) and are subsequently diluted with water to give concentrations of AAMU and 1X no higher than 3×10^−6 M in the ELISA. All the pipettings are done with an eight-channel pipette, except those of the antibody and sample solutions. Starting with the last well, 100 μL of a carbonate buffer (100 mM, pH 9.6) containing 2.5 μg mL-1 antibodies are added to each well. After 90 min. at room temperature, the wells are washed three times with 100 mL of TPB: isotonic sodium phosphate buffer (310 mosm, pH 7.50) containing 0.05% Tween™ 20.
(§3) After the initial wash, unoccupied sites are blocked by incubation for 90 min. at room temperature with 100 μL TBP containing 3% BSA. The wells are washed four times with 100 μL TPB. The washing is followed by additions of 50 μL of 12 mg mL^−1 AAMU-HRP or 1X-HRP conjugate in 2× TPB containing 2% BSA, and 50 μL of either water, standard (13 standards; AAMU or 1X, 2×10^−4 to 2×10^−8 M) or sample in duplicate. The microplate is gently shaken with an orbital shaker at room temperature for 3-4 hours. The wells are washed three times with 100 μL TPB containing 1% BSA and three times with water containing 0.05% Tween™ 20. To the washed plate is added 150 μL of a substrate buffer composed of citric acid (25 mM) and sodium phosphate dibasic buffer (50 mM, pH 5.0) containing 0.06% hydrogen peroxide and 0.04% o-phenylenediamine hydrochloride.
as §2, with “were” for “are”, “They were” for “The urine samples are”, “mL-^1” for “mL-1”, “was pipetted.” for “are added to each well.”, “μL” for “mL”
(§4) After the initial wash, unoccupied sites were blocked by incubation for 90 min. at room temperature with 100 μL TBP containing 3% BSA. The wells were washed four times with 100 μL TPB. This was followed by additions of […] of 12 mg mL^−1 AAMU-HRP or 1X-HRP conjugate in 2× TPB containing 2% BSA, and 50 μL of either water, standard (13 standards; AAMU or 1X, 2×10^−4 to 2×10^−8 M) or sample in duplicate. The microplate was gently shaken with an orbital shaker at room temperature for 3-4 hours. The wells were washed three times with 100 μL with TPB containing 1% BSA and three times with water containing 0.05% Tween™ 20. To the washed plate was added 150 μL of a substrate buffer composed of citric acid (25 mM) and sodium phosphate dibasic buffer (50 mM, pH 5.0) containing 0.06% hydrogen peroxide and 0.04% o-phenylenediamine hydrochloride. After 20 min. at room temperature with shaking, the reaction was stopped with 50 μL of 2.5 N HCl.
(§5) The cross reactivities of AAMU-Ab and 1X-Ab were tested using a wide variety of caffeine metabolites and structural analogs (Table 2 below).

AAMU-Ab = assay: Competitive antigen ELISA, cross-reactivity of AAMU-Ab; type: binding, rabbit; conditions: 0 = absence of inhibition or inhibition no higher than 40% at highest concentration tested (5 × 10^−3 M)
Protocol: as §1, §2, §3
as §2, with “were” for “are”, “They were” for “The urine samples are”, “mL-^1” for “mL-1”, “was pipetted.” for “are added to each well.”, “μL” for “mL”
as §4, §5

[1] = test system: individuals prescribed sildenafil; conditions: postmarketing; cited from earlier work
[2] = test system: slow and fast acetylators; conditions: cited from earlier work
impotent men = conditions: cited from earlier work
[3] = test system: poor vs. extensive metabolizers; conditions: cited from earlier work
[4] = intracavernosal, mixed populations

Structure (SMILES)	% Cross-Reaction IX-Ab (1X-Ab) [%]	% Cross-Reaction AAMU-Ab (AAMU-Ab)	further results
O=c1[nH]c(=O)c2[nH]c(=O)[nH]c2[nH]1 [Uric acid]	0	0%	
Cn1cnc2[nH]c(=O)[nH]c(=O)c21 [7-Methyl Xanthine]	0	0%	
Cn1c(=O)[nH]c(=O)c2[nH]cnc21 [3-Methyl Xanthine]	0	0%	
O=c1cc[nH]c(=O)[nH]1 [Uracil]	0	0%	
CCCc1nn(C)c2c(=O)[nH]c(-c3cc(S(=O)(=O)N4CCN(C)CC4)ccc3OCC)nc12 [sildenafil, Sildenafil]			deaths identified as having cardiovascular events [1]: Forty-six; deaths with definite or suspected myocardial infarction [1]: 21; individual deaths reported after prescription [1]: 123
Cn1c(=O)c2[nH]cnc2n(C)c1=O [1,3-Dimethyl Xanthine (Theophylline), 1,3-Dimethyl Xanthine]	0.2	0%	
CC(=O)Nc1c(N)n(C)c(=O)n(C)c1=O [5-Acetamino-6-amino-1,3-dimethyluracil]	0	0%	
Cc1nc2[nH]c(=O)[nH]c(=O)c2[nH]1 [8-Methyl Xanthine]	0	0%	
Nc1ccc(S(=O)(=O)c2ccc(N)cc2)cc1 [dapsone, Dapsone]			adverse reactions ([2]; fast acetylators): 17%; adverse reactions ([2]; slow acetylators): 46%
Cn1cnc2c1c(=O)[nH]c(=O)n2C [3,7-Dimethyl Xanthine (Theobromine), 3,7-Dimethyl Xanthine]	0	0%	
Cn1c(=O)[nH]c2nc[nH]c2c1=O [1-Methyl Xanthine (1x), 1-Methyl Xanthine]	100	0%	
CC(=O)Nc1c(N)n(C)c(=O)[nH]c1=O [5-Acetamino-6-amino-1-methyluracil]	0	100%	
Cn1c(=O)c2c(ncn2C)n(C)c1=O [1,3,7-Trimethyl Xanthine (Caffeine), 1,3,7-Trimethyl Xanthine]	0	0%	
COc1ccc(Cc2nccc3cc(OC)c(OC)cc23)cc1OC [Papaverine]			penile fibrosis (impotent men; after 1 year of treatment): up to 60%; response rates (impotent men; alone or with phentolamine, mixed populations of impotent men): about 50%; average duration of erection (impotent men; intracavernosal): 50 min
Nc1nc2nc[nH]c2c(=O)[nH]1 [Guanine]	0	0%	
Cn1c(=O)[nH]c2ncn(C)c2c1=O [1,7-Dimethyl Xanthine (Paraxanthine), 1,7-Dimethyl Xanthine]	0.5	0%	
Cn1c(=O)[nH]c2[nH]c(=O)[nH]c2c1=O [1-Methyluric acid]	11	0%	
CC(=O)Nc1c(N)[nH]c(=O)[nH]c1=O [5-Acetamino-6-amino-uracil]	0	0.6%	
COc1ccc2c(c1)[C@]13CCCC[C@@H]1[C@H](C2)N(C)CC3 [Dextromethorphan]			mean performance +/−SE ([3]; EMs (extensive metabolizers)): 95+/−0.5%; mean performance +/−SE ([3]; PMs (poor metabolizers)): 86+/−6%
O=c1[nH]cnc2nc[nH]c12 [Hypoxanthine]	0	0%	
O=c1[nH]c(=O)c2[nH]cnc2[nH]1 [Xanthine]	0	0^a %	
Cn1c(=O)[nH]c2[nH]c(=O)n(C)c2c1=O [1,7-Dimethyluric acid]	0	0%	
CCCCC[C@H](O)/C=C/[C@H]1[C@H](O)CC(=O)[C@@H]1CCCCCCC(=O)O [Alprostadil, prostaglandin E1]			average duration of erection (impotent men; intracavernosal): 64 min; attempts in which erections were achieved (impotent men; [4]): 87%; men who achieved erections (impotent men; [4]): Ninety-four
